Test results published in paper PMC3983190, “Chemical Derivatives of a Small Molecule Deubiquitinase Inhibitor Have Antiviral Activity against Several RNA Viruses” (PLoS ONE, 2014).
≈ marks a conversion by molar mass, not a printed value. Read-outs that look alike come from different tables or passages of the source.

Assays:
[1] = WST-1 cellular toxicity assay, HG23 replicon-bearing cells; assay type: cell-based; details: human, HG23 Norwalk virus replicon-bearing cells, WST-1 viability
RNA viruses = experiment: Antiviral activity across the panel of RNA viruses tested; assay type: cell-based; details: 5 µM
Source text: (§1) Cells were freeze-thawed twice.

[2] = mouse
[3] = WST-1 cellular toxicity assay, bone marrow-derived macrophages; details: Swiss Webster, mouse
[4] = Aqueous solubility as per Lipinski et al.; details: for solubility: kinetic from dmso stock
La Crosse virus (LCV) = experiment: La Crosse virus infection of Be2-c cells, plaque assay; assay type: cell-based; details: 5 µM, 30 minutes pre-treatment, MOI 5, 12 hours
Source text: as §1

[5] = tested on: Encephalomyocarditis virus (EMCV); experiment: Encephalomyocarditis virus infection of Vero cells, plaque assay; assay type: cell-based; details: 5 µM, 30 minutes pre-treatment, MOI 5, 12 hours
Source text: as §1

Sindbis virus = Sindbis virus infection of Vero cells, plaque assay; assay type: cell-based; details: 5 µM, 30 minutes pre-treatment, MOI 5, 12 hours
Source text: as §1

Tulane virus = Tulane virus infection of LLC-MK2 cells, plaque assay; assay type: cell-based; details: 5 µM, 30 minutes pre-treatment, MOI 5, 24 hours
Source text: as §1

MNV-1 [6] = details: 5 µM; for decrease in MNV-1 titers compared to DMSO: 30 minute pre-treatment, RAW 264.7, 8 hours; for viral titer decrease compared to DMSO: administered 1 hour post infection, RAW 264.7
Norwalk virus = experiment: HuNoV replicon assay in HG23 cells, Norwalk virus genomes by qRT-PCR; details: for reduction of detectable Norwalk virus genomes compared to DMSO: 5 µM, 24 hours, HG23 cells; for EC50: Norwalk virus, HG23, 24 h, read-out: EC50 HG23
[7] = tested on: Vesicular Stomatitis Virus (VSV); assay type: cell-based
MNV-1 [8] = details: previously determined by the authors; cited from earlier work
in vitro [9] = details: mouse
in vitro [10] = details: Swiss Webster, mouse
physchem = details: kinetic from dmso stock

SMILES: CCC[C@H](NC(=O)/C=C/c1cccc(Br)n1)c1ccccc1 [Compound 1]
- CC50 at 24 h [1]: 7.2 µM
- antiviral activity against any of the viruses tested (RNA viruses): no antiviral activity
- CC50 [2]: 24.7 µM
- CC50 [3]: 10.4 µM

SMILES: CCC[C@H](NC(=O)C(C#N)Cc1cccc(Br)n1)c1ccccc1 (stereo partly drawn) [Compound 2]
- CC50 at 24 h [1]: 8.71 µM
- antiviral activity against any of the viruses tested (RNA viruses): no antiviral activity
- CC50 [2]: 24.9 µM
- CC50 [3]: 8.53 µM

SMILES: CCCC(NC(=O)/C(C#N)=C/c1cccc(Br)n1)c1ccc(OCCN(C)C)cc1 (stereo not drawn) [Compound 3]
- CC50 at 24 h [1]: 7.82 µM
- antiviral activity against any of the viruses tested (RNA viruses): no effect
- solubility [4]: 19 µM (≈ 8.96 µg/mL)
- CC50 [2]: 9.43 µM
- CC50 [3]: 6.12 µM

SMILES: CCC(NC(=O)/C(C#N)=C/c1cccc(Br)n1)c1ccc(O)cc1 (stereo not drawn) [Compound 4]
- CC50 at 24 h [1]: 9.26 µM
- effect on La Crosse virus infectious titers (La Crosse virus (LCV)): only effective against Tulane virus
- effect on EMCV infectious titers [5]: only effective against Tulane virus
- effect on Sindbis virus infectious titers (Sindbis virus): only effective against Tulane virus
- effect on Tulane virus infectious titers (Tulane virus): effective
- expected aqueous solubility (not determined, limited availability) ([4]; relative to WP1130): more soluble than WP1130 but less soluble than compound 7
- CC50 [2]: 11 µM
- CC50 [3]: 15.2 µM
- decrease in MNV-1 titers compared to DMSO (MNV-1 [6]): 1.95 log
- viral titer decrease compared to DMSO (MNV-1 [6]): 1.73 log
- reduction of detectable Norwalk virus genomes compared to DMSO (Norwalk virus): approximately 30%
- EC50 (Norwalk virus): 6.52 µM

SMILES: CCCC(NC(=O)/C(C#N)=C/c1cccnc1F)c1ccc(OCCN2CCOCC2)cc1 (stereo not drawn) [Compound 5]
- CC50 at 24 h [1]: 7.61 µM
- effect on La Crosse virus infectious titers (La Crosse virus (LCV)): only effective against Tulane virus
- effect on EMCV infectious titers [5]: only effective against Tulane virus
- effect on Sindbis virus infectious titers (Sindbis virus): only effective against Tulane virus
- effect on Tulane virus infectious titers (Tulane virus): effective
- solubility [4]: 14 µM (≈ 6.34 µg/mL)
- CC50 [2]: 15.4 µM
- CC50 [3]: 11.3 µM
- decrease in MNV-1 titers compared to DMSO (MNV-1 [6]): 2.52 log
- viral titer decrease compared to DMSO (MNV-1 [6]): 2.67 log
- reduction of detectable Norwalk virus genomes compared to DMSO (Norwalk virus): about 64%
- EC50 (Norwalk virus): 4.28 µM

SMILES: CCCC(NC(=O)/C(C#N)=C/c1ccccn1)c1ccc(OCCN2CCOCC2)cc1 (stereo not drawn) [Compound 6]
- CC50 at 24 h [1]: 10.4 µM
- effect on La Crosse virus infectious titers (La Crosse virus (LCV)): significantly reduced infectious titers
- effect on EMCV infectious titers [5]: significantly reduced infectious titers
- effect on Sindbis virus infectious titers (Sindbis virus): significantly reduced infectious titers
- effect on Tulane virus infectious titers (Tulane virus): significantly reduced infectious titers
- solubility [4]: 160 µM (≈ 69.5 µg/mL)
- CC50 [2]: 7.46 µM
- CC50 [3]: 11.1 µM
- decrease in MNV-1 titers compared to DMSO (MNV-1 [6]): 2.55 log
- viral titer decrease compared to DMSO (MNV-1 [6]): 2.50 log
- reduction of detectable Norwalk virus genomes compared to DMSO (Norwalk virus): about 64%
- EC50 (Norwalk virus): 4.17 µM

SMILES: CCCC(NC(=O)/C(C#N)=C/c1cccc(F)n1)c1ccc(OCCN2CCOCC2)cc1 (stereo not drawn) [Compound 7]
- CC50 at 24 h [1]: 6.12 µM
- effect on La Crosse virus infectious titers (La Crosse virus (LCV)): significantly decreased infection
- effect on EMCV infectious titers [5]: not of EMCV, although a trend towards antiviral activity was present
- effect on Sindbis virus infectious titers (Sindbis virus): significantly decreased infection
- effect on Tulane virus infectious titers (Tulane virus): significantly decreased infection
- solubility [4]: 14 µM (≈ 6.34 µg/mL)
- CC50 [2]: 13.7 µM
- CC50 [3]: 7.11 µM
- decrease in MNV-1 titers compared to DMSO (MNV-1 [6]): 2.60 log
- viral titer decrease compared to DMSO (MNV-1 [6]): 1.51 log
- reduction of detectable Norwalk virus genomes compared to DMSO (Norwalk virus): ~80%
- EC50 (Norwalk virus): 3.37 µM

SMILES: CCC[C@H](NC(=O)/C(C#N)=C/c1cccc(Br)n1)c1ccccc1 [WP1130, reference compound]
- CC50 at 24 h [1]: 6.2 µM
- effect on La Crosse virus infectious titers (La Crosse virus (LCV)): significantly reduced infectious titers
- effect on EMCV infectious titers [5]: significantly reduced infectious titers
- effect on Sindbis virus infectious titers (Sindbis virus): significantly reduced infectious titers
- effect on Tulane virus infectious titers (Tulane virus): significantly reduced infectious titers
- inhibition of VSV infection [7]: not inhibited
- EC50 (MNV-1 [8]): 5.06 µM
- CC50 (in vitro [9]): 9.95 µM
- CC50 (in vitro [10]): 6.46 µM
- solubility (physchem): ~3.2 µM (≈ 1.23 µg/mL)
- decrease in MNV-1 titers compared to DMSO (MNV-1 [6]): 2.0 log
